In the RepoRT retention time repository (doi:10.1021/acs.analchem.2c02893):

Assay: RP, Thermo Scientific Acclaim RSLC 120 C18, 100 × 2.1 mm, 2.2 µm, 30 °C, 0.2 mL/min, estimated dead time 1.1 min; A: 90% water + 10% methanol + 0.01% formic acid + 5 mM ammonium formate, pH 3.61; B: methanol + 0.01% formic acid + 5 mM ammonium formate, pH 3.61; gradient (min/%B) 0/1 1/1 2/39 13/99.9 15/99.9 15.1/1 20.1/1
Conditions: stereoisomer not certain

`Nc1ccc(Cl)cc1C(=O)c1ccccc1` [Benzophenone- 2-Amino-5-chloro] and `Cc1nn(C)c(OCC(=O)c2ccccc2)c1C(=O)c1ccc(Cl)cc1Cl` [Pyrazoxyfen] are within 1.5-fold of each other in LC retention time: 10.5 min for the first, 10.9 min for the second.

`O=C(OCC(O)CO)c1ccccc1Nc1ccnc2cc(Cl)ccc12` (configuration not stated) [Glaphenine] and `O=C(Nc1ccccc1)Nc1ccnc(Cl)c1` [Forchlorfenuron] are within 1.5-fold of each other in LC retention time: 6.63 min for the first, 8.53 min for the second.

Compared with `Nc1ccc(S(=O)(=O)Nc2ccc(Cl)nn2)cc1` [Sulfachloropyridazine], `CCOC(=O)C(O)(c1ccc(Cl)cc1)c1ccc(Cl)cc1` [Chlorobenzilate] is 2.6-fold higher in LC retention time: 4.56 min for the first, 11.7 min for the second.

First: CC(C)N1C(=O)c2ccccc2NS1(=O)=O [Bentazone]
Second: O=C1Nc2ccc(Cl)cc2C(c2ccccc2Cl)=NC1O (configuration not stated) [Lorazepam]
The LC retention time of the first is 1.6-fold lower: 5.22 min for the first, 8.36 min for the second.

`CCCCCn1cc(C(=O)c2ccc(C)c3ccccc23)c2ccccc21` [JWH-122] and `O=C(c1cccc2ccccc12)c1cn(CC2CCCCC2)c2ccccc12` [NE-CHMIMO] are within 1.5-fold of each other in LC retention time: 12.9 min for the first, 13 min for the second.

Going from `COc1ccc(C(CN(C)C)C2(O)CCCCC2)cc1` (configuration not stated) [Venlafaxine] to `CCOc1cc(CC(=O)NC(CC(C)C)c2ccccc2N2CCCCC2)ccc1C(=O)O` (configuration not stated) [Repaglinide], the LC retention time rises from 6.14 min to 11.9 min (1.9-fold).

Going from `CC1(OC(=O)C=Cc2ccccc2)CC(O)C2(O)C=COC(OC3OC(CO)C(O)C(O)C3O)C12` (configuration not stated) [Harpagoside] to `CN(C)C1C(=O)C(C(N)=O)=C(O)C2(O)C(=O)C3=C(O)c4c(O)cccc4C(C)(O)C3CC12` (configuration not stated) [Tetracycline], the LC retention time falls from 8.25 min to 4.7 min (1.8-fold).

`CCCc1nn(C)c2c(=O)[nH]c(-c3cc(C(=O)CN4CCN(CC)CC4)ccc3OCC)nc12` [Acetildenafil] and `CCCc1nn(C)c2c(=O)[nH]c(-c3cc(C(=O)CN4CCN(CC)C(=O)C4=O)ccc3OCC)nc12` [Dioxohongdenafil] are within 1.5-fold of each other in LC retention time: 7.01 min for the first, 8.18 min for the second.

`CCN(CC)CCCN(c1ccccc1)C1Cc2ccccc2C1` [Aprindine] and `CNCC12CCC(c3ccccc31)c1ccccc12` [Benzoctamine] are within 1.5-fold of each other in LC retention time: 8.85 min for the first, 6.52 min for the second.

`CCCc1nn(C)c2c(=O)[nH]c(-c3cc(C(C)=O)ccc3OCC)nc12` [Gendenafil] and `CCc1cccc(C)c1N(C(=O)CS(=O)(=O)O)C(C)COC` (configuration not stated) [Metolachlor-ESA] are within 1.5-fold of each other in LC retention time: 9.81 min for the first, 7.34 min for the second.

`C=CC1(C)CC(OC(=O)CSCCN(CC)CC)C2(C)C(C)CCC3(CCC(=O)C32)C(C)C1O` (configuration not stated) [Tiamulin] and `CCOC(=O)CSc1nc(C(C)(C)C)nn1C(=O)N(C)C` [Triazamate] are within 1.5-fold of each other in LC retention time: 7.71 min for the first, 6.38 min for the second.

`CCOC(=O)C(CCc1ccccc1)NC1CCCN2CCCC(C(=O)O)N2C1=O` (configuration not stated) [Cilazapril] and `O=C(NC1CCN(CCc2c[nH]c3ccccc23)CC1)c1ccccc1` [Indoramin] are within 1.5-fold of each other in LC retention time: 7.94 min for the first, 5.37 min for the second.

`COC=C(C(=O)OC)c1ccccc1Oc1cc(Oc2ccccc2C#N)ncn1` [Azoxystrobin] and `CN1CCC(=C2c3ccccc3C=Cc3ccccc32)CC1` [Cyproheptadine] are within 1.5-fold of each other in LC retention time: 9.02 min for the first, 7.89 min for the second.

`Cc1cccc2sc3nncn3c12` [Tricyclazole] and `Cc1cccc(CC(C)N)c1` (configuration not stated) [Amphetamine-3-methyl] are within 1.5-fold of each other in LC retention time: 5.93 min for the first, 5.17 min for the second.

`COP(=O)(OC)OC(=CCl)c1cc(Cl)c(Cl)cc1Cl` [Tetrachlorvinphos (Stirofos)] and `CCOCCOC(=O)C(C)Oc1ccc(Oc2ncc(C(F)(F)F)cc2Cl)cc1` (configuration not stated) [Haloxyfop ethoxyethyl ester] are within 1.5-fold of each other in LC retention time: 10.6 min for the first, 12.2 min for the second.

`CC12CCC3c4ccc(O)c(O)c4CCC3C1CCC2=O` (configuration not stated) and `C=C1CC2C(CCC3(C)C(=O)CCC23)C2(C)C=CC(=O)C=C12` (configuration not stated) [Exemestane] are within 1.5-fold of each other in LC retention time: 8.69 min for the first, 9.03 min for the second.

`CCCOCC(=Nc1ccc(Cl)cc1C(F)(F)F)n1ccnc1` [Triflumizole] and `CNCCC(Oc1ccc(C(F)(F)F)cc1)c1ccccc1` (configuration not stated) [Fluoxetine] are within 1.5-fold of each other in LC retention time: 11.8 min for the first, 8.6 min for the second.

`CCC1C(=O)OCC1Cc1cncn1C` (configuration not stated) [Pilocarpine] and `CN1CCC23c4c5ccc(O)c4OC2C(=O)CCC3(O)C1C5` (configuration not stated) [Oxymorphone] are within 1.5-fold of each other in LC retention time: 2.74 min for the first, 2.75 min for the second.

`O=C1CN(N=Cc2ccc([N+](=O)[O-])o2)C(=O)N1` [Nitrofurantoin] and `CNS(=O)(=O)Cc1ccc2[nH]cc(CCN(C)C)c2c1` [Sumatriptan] are within 1.5-fold of each other in LC retention time: 4.14 min for the first, 3.43 min for the second.

Going from `CSc1ccc(CC(C)N)cc1` (configuration not stated) [MTA (4-)] to `Cc1oc(C)c(C(=O)Nc2ccccc2)c1C` [Methfuroxam], the LC retention time rises from 5.24 min to 8.79 min (1.7-fold).

Going from `O=C(O)C(c1ccccc1Cl)N1CCc2sccc2C1` (configuration not stated) [Clopidogrel Carbon acid] to `C=C(c1ccc(C(=O)O)cc1)c1cc2c(cc1C)C(C)(C)CCC2(C)C` [Bexarotene], the LC retention time rises from 5.56 min to 14.1 min (2.5-fold).
